Measured values: patent US10344017B2, “Pyrrolcarboxamide derivatives for the inhibition of ERK5” (CANCER RESEARCH TECHNOLOGY LIMITED, priority 2014, dated 2019)

Target: T1, ERK5 (Homo sapiens, UniProt Q13164)
T1 construct: made in house
Assay: ERK5 IMAP assay (fluorescence polarisation)
Assay type: biochemical
Conditions: average (e.g. geometric mean) where more than one data point; read-out: ERK5 IC50

T1 sequence (Q13164 whole entry): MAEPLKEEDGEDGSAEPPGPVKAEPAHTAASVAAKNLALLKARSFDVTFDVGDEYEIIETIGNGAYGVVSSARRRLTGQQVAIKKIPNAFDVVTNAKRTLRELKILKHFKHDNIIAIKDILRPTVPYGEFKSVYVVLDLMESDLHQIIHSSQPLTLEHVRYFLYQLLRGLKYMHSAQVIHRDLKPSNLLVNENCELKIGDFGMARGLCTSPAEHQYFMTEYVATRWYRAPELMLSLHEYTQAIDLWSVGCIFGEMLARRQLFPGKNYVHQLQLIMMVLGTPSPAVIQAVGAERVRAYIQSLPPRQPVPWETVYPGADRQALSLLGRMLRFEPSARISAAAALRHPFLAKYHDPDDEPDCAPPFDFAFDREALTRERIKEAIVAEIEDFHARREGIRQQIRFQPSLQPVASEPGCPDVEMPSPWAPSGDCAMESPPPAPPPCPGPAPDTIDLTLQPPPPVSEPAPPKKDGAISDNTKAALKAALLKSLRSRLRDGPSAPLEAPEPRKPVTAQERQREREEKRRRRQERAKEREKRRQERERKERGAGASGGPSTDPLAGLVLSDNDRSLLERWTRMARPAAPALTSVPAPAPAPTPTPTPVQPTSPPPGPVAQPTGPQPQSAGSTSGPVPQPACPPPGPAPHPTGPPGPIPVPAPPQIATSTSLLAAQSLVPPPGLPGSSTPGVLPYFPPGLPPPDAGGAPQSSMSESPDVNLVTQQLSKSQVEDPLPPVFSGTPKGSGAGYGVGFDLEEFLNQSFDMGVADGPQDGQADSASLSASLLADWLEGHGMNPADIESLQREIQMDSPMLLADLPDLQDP

Compound	IC50 [µM]
O=C(Nc1cc[nH]c(=O)n1)c1cc(C(=O)c2c(F)cccc2Br)c[nH]1 [Example 147, 4-(2-Bromo-6-fluorobenzoyl)-N-(2-oxo-1,2-dihydropyrimidin-4-yl)-1H-pyrrole-2-carboxamide]	34.2
O=C(NC1CCNCC1)c1cc(C(=O)c2c(F)ccc(F)c2F)c[nH]1 [Example 208, N-(Piperidin-4-yl)-4-(2,3,6-trifluorobenzoyl)-1H-pyrrole-2-carboxamide]	0.611
O=C(NC1CCNCC1)c1cc(C(=O)c2c(F)ccc(F)c2Cl)c[nH]1 [Example 215, 4-(2-Chloro-3,6-difluorobenzoyl)-N-(piperidin-4-yl)-1H-pyrrole-2-carboxamide]	0.694
CCc1ncccc1NC(=O)c1cc(C(=O)c2c(F)cccc2Cl)c[nH]1 [Example 76, 4-(2-Chloro-6-fluorobenzoyl)-N-(2-ethylpyridin-3-yl)-1H-pyrrole-2-carboxamide]	1.58
COc1ccc(Cl)c(C(=O)c2c[nH]c(C(=O)Nc3cnc(CC4CCN(C)CC4)nc3)c2)c1F [Example 247, 4-(6-Chloro-2-fluoro-3-methoxybenzoyl)-N-(2-((1-methylpiperidin-4-yl)methyl)pyrimidin-5-yl)-1H-pyrrole-2-carboxamide]	0.0181
O=C(NC1CCOCC1)c1cc(C(=O)c2c(F)cccc2Cl)c[nH]1 [Example 194, 4-(2-Chloro-6-fluorobenzoyl)-N-(tetrahydro-2H-pyran-4-yl)-1H-pyrrole-2-carboxamide]	0.845
COc1ccc(Cl)c(C(=O)c2c[nH]c(C(=O)Nc3cnn(Cc4ccccn4)c3)c2)c1F [Example 65]	0.0538
CN1CCC(NC(=O)c2cc(C(=O)c3c(F)cccc3Br)c[nH]2)CC1 [Example 195, 4-(2-Bromo-6-fluorobenzoyl)-N-(1-methylpiperidin-4-yl)-1H-pyrrole-2-carboxamide]	0.289
O=C(NC1CCNCC1)c1cc(C(=O)c2c(Cl)ccc(F)c2F)c[nH]1 [Example 224, 4-(6-Chloro-2,3-difluorobenzoyl)-N-(piperidin-4-yl)-1H-pyrrole-2-carboxamide]	0.155
Cn1cc(NC(=O)c2cc(C(=O)c3c(Cl)ccc(O)c3F)c[nH]2)cn1 [Example 255, 4-(6-Chloro-2-fluoro-3-hydroxybenzoyl)-N-(1-methyl-1H-pyrazol-4-yl)-1H-pyrrole-2-carboxamide]	0.736
COc1ccc(Cl)c(C(=O)c2c[nH]c(C(=O)Nc3cnc(CN4CCOCC4)nc3)c2)c1F [Example 243, 4-(6-Chloro-2-fluoro-3-methoxybenzoyl)-N-(2-(morpholinomethyl)pyrimidin-5-yl)-1H-pyrrole-2-carboxomide]	0.129
O=C(Nc1cnn(C2CCN(CC(F)(F)F)CC2)c1)c1cc(C(=O)c2c(Cl)ccc(Cl)c2F)c[nH]1 [Example 42, 4-(3,6-Dichloro-2-fluorobenzoyl)-N-(1-(1-(2,2,2-trifluoroethyl)piperidin-4-yl)-1H-pyrazol-4-yl)-1H-pyrrole-2-carboxamide]	3.55
O=C(NC1CCOCC1)c1cc(C(=O)c2c(F)cccc2Br)c[nH]1 [Example 198, 4-(2-Bromo-6-fluorobenzoyl)-N-(tetrahydro-2H-pyran-4-yl)-1H-pyrrole-2-carboxamide]	1.22
CS(=O)(=O)CCNc1ccc(NC(=O)c2cc(C(=O)c3c(Cl)ccc(Cl)c3F)c[nH]2)cn1 [Example 263, 4-(3,6-Dichloro-2-fluorobenzoyl)-N-(6-((2-(methylsulfonyl)ethyl)amino)pyridin-3-yl)-1H-pyrrole-2-carboxamide]	0.211
C#Cc1cccc(F)c1C(=O)c1c[nH]c(C(=O)NC2CCN(C)CC2)c1 [Example 205, 4-(2-Ethynyl-6-fluorobenzoyl)-N-(1-methylpiperidin-4-yl)-1H-pyrrole-2-carboxamide]	2.84
CN(c1ncc(NC(=O)c2cc(C(=O)c3c(Cl)ccc(Cl)c3F)c[nH]2)cn1)C1CCNCC1 [Example 106, 4-(3,6-Dichloro-2-fluorobenzoyl)-N-(2-(methyl(piperidin-4-yl)amino)pyrimidin-5-yl)-1H-pyrrole-2-carboxamide]	0.02
Cc1ccc(F)c(C(=O)c2c[nH]c(C(=O)NC3CCN(C)CC3)c2)c1Cl [Example 177, 4-(2-Chloro-6-fluoro-3-methylbenzoyl)-N-(1-methylpiperidin-4-yl)-1H-pyrrole-2-carboxamide]	0.472
O=C(Nc1cnn(C2CCOC2)c1)c1cc(C(=O)c2c(Cl)ccc(Cl)c2F)c[nH]1 (centres unmarked) [Example 240, 4-(3,6-Dichloro-2-fluorobenzoyl)-N-(1-(tetrahydrofuran-3-yl)-1H-pyrazol-4-yl)-1H-pyrrole-2-carboxamide]	0.127

Continued, values first:

IC50 [µM]	Compound
1	COc1ccncc1NC(=O)c1cc(C(=O)c2c(Cl)ccc(Cl)c2F)c[nH]1 [Example 96, 4-(3,6-Dichloro-2-fluorobenzoyl)-N-(4-methoxypyridin-3-yl)-1H-pyrrole-2-carboxamide]
1.83	COc1cc(NC(=O)c2cc(C(=O)c3c(F)cccc3Cl)c[nH]2)ccn1 [Example 40, 4-(2-Chloro-6-fluorobenzoyl)-N-(2-methoxypyridin-4-yl)-1H-pyrrole-2-carboxamide]
0.0843	COc1ccc(Cl)c(C(=O)c2c[nH]c(C(=O)Nc3cnn(C)c3)c2)c1F [Example 62, 4-(6-Chloro-2-fluoro-3-methoxybenzoyl)-N-(1-methyl-1H-pyrazol-4-yl)-1H-pyrrole-2-carboxamide]
0.265	O=C(Nc1cccnc1)c1cc(C(=O)c2c(F)ccc(Cl)c2Cl)c[nH]1 [Example 169, 4-(2,3-Dichloro-6-fluorobenzoyl)-N-(pyridin-3-yl)-1H-pyrrole-2-carboxamide]
0.104	COCCn1cc(NC(=O)c2cc(C(=O)c3c(Cl)ccc(OC)c3F)c[nH]2)cn1 [Example 63, 4-(6-Chloro-2-fluoro-3-methoxybenzoyl)-N-(1-(2-methoxyethyl)-1H-pyrazol-4-yl)-1H-pyrrole-2-carboxamide]
0.263	Cc1ccc(Cl)c(C(=O)c2c[nH]c(C(=O)Nc3cncnc3)c2)c1F [Example 179, 4-(6-Chloro-2-fluoro-3-methylbenzoyl)-N-(pyrimidin-5-yl)-1H-pyrrole-2-carboxamide]
0.554	O=C(Nc1cncnc1)c1cc(C(=O)c2c(Cl)ccc(F)c2F)c[nH]1 [Example 222, 4-(6-Chloro-2,3-difluorobenzoyl)-N-(pyrimidin-5-yl)-1H-pyrrole-2-carboxamide]
0.437	COc1ccc(F)c(C(=O)c2c[nH]c(C(=O)Nc3cncnc3)c2)c1Cl [Example 75, 4-(2-chloro-6-fluoro-3-methoxybenzoyl)-N-(pyrimidin-5-yl)-1H-pyrrole-2-carboxamide]
0.439	O=C(Nc1ccnnc1)c1cc(C(=O)c2c(F)cccc2Cl)c[nH]1 [Example 138, 4-(2-Chloro-6-fluorobenzoyl)-N-(pyridazin-4-yl)-1H-pyrrole-2-carboxamide]
0.515	Cc1ccc(Cl)c(C(=O)c2c[nH]c(C(=O)Nc3cccnc3)c2)c1F [Example 178, 4-(6-Chloro-2-fluoro-3-methylbenzoyl)-N-(pyridin-3-yl)-1H-pyrrole-2-carboxamide]
1.01	O=C(Nc1cccnc1)c1cc(C(=O)c2c(F)ccc(F)c2Cl)c[nH]1 [Example 214, 4-(2-Chloro-3,6-difluorobenzoyl)-N-(pyridin-3-yl)-1H-pyrrole-2-carboxamide]
